Where a name gives a salt, the structure may show the parent alone. Read-outs that look alike come from different tables or passages of the source.
Columns and labels:
Pim-1 = Pim-1 (Homo sapiens (Human), UniProt P11309); test: ADP-Glo Kinase Assay, Pim-1; type: biochemical; details: 1 μM compound; for inhibition at 1 µM: read-out: Pim-1 % INH (1 μM)
Procedure: (§1) Compounds of the present invention were tested for their inhibitory activity against Pim-1, Pim-2, Pim-3, Flt3 wt, Flt3 ITD, CDK2/E and DYRK1. The testing of the compounds was carried out using the ADP-Glo™ Kinase Assay from Promega Corporation (Madison, Wis., USA).
(§2) The ADP-Glo™ Kinase Assay is a luminescent ADP detection assay to measure kinase activity by quantifying the amount of ADP produced during a kinase reaction. The kinase assay is performed in kinase assay buffer (5 mM MOPS, pH 7.5, 5 mM MgCl2, 0.4 mM EDTA, 1.5 mM DTT). Test samples initially dissolved in DMSO at 10 mM were diluted with the assay buffer to 1000 nM. A 30 μL volume/well of a mixture of substrates containing ATP (final ATP concentration in each kinase assay was equal to its apparent ATP Km).
(§3) The assay was performed in two steps: first, after the kinase reaction, an equal volume of ADP-Glo™ Reagent was added to terminate the kinase reaction and deplete the remaining ATP. Second, the Kinase Detection Reagent was added to simultaneously convert ADP to ATP and allowed the newly synthesized ATP to be measured using a luciferase/luciferin reaction. The luminescent signal generated was proportional to the ADP concentration produced and was correlated with kinase activity. A microplate spectrophotometer (Synergy 2 multi-mode microplate reader [BioTek]) was used for detecting the luminescence. The data was normalized and the percent of inhibition was obtained according to the following equation: […]

Pim-3 = Pim-3 (Homo sapiens (Human), UniProt Q86V86); test: ADP-Glo Kinase Assay, Pim-3; type: biochemical; details: 1 μM compound; for inhibition at 1 µM: read-out: Pim-3 % INH (1 μM)
Procedure: as §1, §2, §3

FLT3wt = FLT3wt (Homo sapiens (Human), UniProt P36888); test: ADP-Glo Kinase Assay, Flt3 wt; type: biochemical; details: 1 μM compound; for inhibition at 1 µM: read-out: Flt3wt % INH (1 μM)
Sequence of FLT3wt (P36888 27-993): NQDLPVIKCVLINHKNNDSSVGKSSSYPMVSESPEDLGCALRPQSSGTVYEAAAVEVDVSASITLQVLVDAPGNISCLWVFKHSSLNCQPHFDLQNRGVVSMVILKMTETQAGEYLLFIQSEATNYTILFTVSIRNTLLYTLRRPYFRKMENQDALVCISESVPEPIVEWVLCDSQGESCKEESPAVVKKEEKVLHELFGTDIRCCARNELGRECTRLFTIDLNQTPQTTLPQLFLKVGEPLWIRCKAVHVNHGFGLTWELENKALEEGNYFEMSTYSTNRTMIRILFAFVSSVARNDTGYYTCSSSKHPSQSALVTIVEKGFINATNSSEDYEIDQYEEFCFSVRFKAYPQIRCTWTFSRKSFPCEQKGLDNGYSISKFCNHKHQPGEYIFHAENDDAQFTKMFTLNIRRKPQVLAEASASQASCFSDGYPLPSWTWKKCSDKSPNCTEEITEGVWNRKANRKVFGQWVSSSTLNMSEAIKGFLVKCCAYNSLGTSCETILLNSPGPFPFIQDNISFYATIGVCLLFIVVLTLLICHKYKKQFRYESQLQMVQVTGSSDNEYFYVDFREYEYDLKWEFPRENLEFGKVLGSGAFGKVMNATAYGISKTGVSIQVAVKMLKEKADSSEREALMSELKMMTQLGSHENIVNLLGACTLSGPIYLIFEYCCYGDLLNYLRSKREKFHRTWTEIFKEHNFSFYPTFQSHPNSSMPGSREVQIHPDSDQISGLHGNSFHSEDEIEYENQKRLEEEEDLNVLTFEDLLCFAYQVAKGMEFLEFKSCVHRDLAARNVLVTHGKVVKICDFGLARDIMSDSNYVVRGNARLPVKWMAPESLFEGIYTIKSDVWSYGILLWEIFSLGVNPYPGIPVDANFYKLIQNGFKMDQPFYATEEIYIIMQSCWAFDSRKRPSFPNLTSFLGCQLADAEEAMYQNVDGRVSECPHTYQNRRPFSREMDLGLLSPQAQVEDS
Procedure: as §1, §2, §3

DYRK1 = DYRK1 (Homo sapiens (Human), UniProt Q13627); test: ADP-Glo Kinase Assay, DYRK1; type: biochemical; details: 1 μM compound; for inhibition at 1 µM: read-out: DYRK1A % INH (1 μM)
Procedure: as §1, §2, §3

MV4-11 cells = test: Growth inhibition, MTS assay, MV4-11; type: cell-based, Human; details: MTS cell viability, read-out: MV4-11 ED50
Excerpt: (§4) The following cell lines, were obtained and used in tests as outlined below: • Human myelomonocytic, biphenotypic leukemia MV4-11 cells (harboring a Flt3-ITD mutation); • Human Acute Myeloid Leukemia MOLM16 cells; • Human Acute Myeloid Leukemia MOLM13 cells (harboring a Flt3-ITD mutation); • Human Myeloid Leukemia KG-1 cells; • Human erythroleukemia HEL92 cells; • Human mantle cell lymphoma Jeko-1 cells; • Human hepatocellular carcinoma HepG2 cells; and • Human colon adenocarcinoma SW-480 cells.
(§5) The assays were carried out according to the following protocol, which is described as an example for the MV4-11 cells:
(§6) Ten thousand MV4-11 cells were inoculated into each well of a 96-well microplate (manufactured by Corning Corp.) using Iscove's MDM medium (culture medium) containing 10% fetal calf serum (FCS). The same day, a dimethyl sulfoxide (DMSO) solution of each test compound prepared in a concentration of 10 mmol/L was further diluted with DMSO to the desired concentrations (0.1, 0.5, 1, 2.5, 5 and 10 micromol/L), and the diluted solution was added to each well. The individual wells were further cultured in 5% carbon dioxide at 37° C. for 72 hours. […] Briefly, 10 μl MTS (3-(4,5-Dimethyl-2-thiazolyl)-5-(carboxymethoxyphenyl)-2-(4-sulfophenyl)-2H-tetrazolium was added to each well, and culturing was performed in 5% carbon dioxide at 37° C. for 2 hours. After this incubation and using a microplate spectrophotometer (Synergy 2 multi-mode microplate reader (BioTek)), the absorbance of each well was measured at 490 nm. The value for cells not incubated with a test compound was designated as 100%. By comparing these values with the absorbance difference obtained at the well in which each test compound was added, the cell viability (% viability) after treatment with the test compound was calculated.

HEL92 cells = test: Growth inhibition, MTS assay, HEL92; type: cell-based, Human; details: MTS cell viability, read-out: HEL92 ED50
Excerpt: as §4, §5, §6

HepG2 cells = test: Growth inhibition, MTS assay, HepG2; type: cell-based, Human; details: MTS cell viability, read-out: HepG2 ED50
Excerpt: as §4, §5, §6

Pim-2 = Pim-2 (Homo sapiens (Human), UniProt Q9P1W9); test: ADP-Glo Kinase Assay, Pim-2; type: biochemical; details: 1 μM compound; for inhibition at 1 µM: read-out: Pim-2 % INH (1 μM)
Sequence of Pim-2 (Q9P1W9 whole entry): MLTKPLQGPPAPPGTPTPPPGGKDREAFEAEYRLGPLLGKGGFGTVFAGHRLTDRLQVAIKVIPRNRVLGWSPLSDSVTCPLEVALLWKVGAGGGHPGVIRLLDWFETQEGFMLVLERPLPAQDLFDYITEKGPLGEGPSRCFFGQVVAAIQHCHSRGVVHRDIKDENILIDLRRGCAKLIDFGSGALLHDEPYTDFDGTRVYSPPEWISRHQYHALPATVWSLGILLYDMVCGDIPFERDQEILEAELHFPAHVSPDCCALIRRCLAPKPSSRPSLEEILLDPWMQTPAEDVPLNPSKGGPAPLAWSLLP
Procedure: as §1, §2, §3

CDK2/E = CDK2/E (Homo sapiens (Human), UniProt P24941); test: ADP-Glo Kinase Assay, CDK2/E; type: biochemical; details: 1 μM compound; for inhibition at 1 µM: read-out: CDK2/E % INH (1 μM)
Procedure: as §1, §2, §3

Sequence of Pim-1 (P11309 whole entry): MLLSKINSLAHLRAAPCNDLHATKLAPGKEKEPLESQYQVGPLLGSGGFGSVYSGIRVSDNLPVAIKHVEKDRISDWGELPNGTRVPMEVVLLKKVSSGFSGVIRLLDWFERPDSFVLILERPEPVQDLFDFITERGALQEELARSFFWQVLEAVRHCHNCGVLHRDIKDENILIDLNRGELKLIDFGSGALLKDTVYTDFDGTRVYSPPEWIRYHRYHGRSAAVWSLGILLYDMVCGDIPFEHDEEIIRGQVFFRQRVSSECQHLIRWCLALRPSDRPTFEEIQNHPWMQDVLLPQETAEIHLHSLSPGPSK

Pim-1 % INH (1 μM) (Pim-1) | Pim-3 % INH (1 μM) (Pim-3) | Flt3wt % INH (1 μM) (FLT3wt) | DYRK1A % INH (1 μM) (DYRK1) | IC50 (MV4-11 cells; 72 hours) | IC50 (HepG2 cells; 72 hours) | inhibition at 1 µM (Pim-1) | inhibition at 1 µM (Pim-2) | inhibition at 1 µM (Pim-3) | inhibition at 1 µM (FLT3wt) | inhibition at 1 µM (DYRK1) | IC50 (MV4-11 cells; Homo sapiens, MV4-11, 72 h) | IC50 (HepG2 cells; Homo sapiens, HepG2, 72 h) | inhibition at 1 µM (CDK2/E) | CDK2/E % INH (1 μM) (CDK2/E) | Pim-2 % INH (1 μM) (Pim-2) | Compound | IC50 (HEL92 cells; 72 hours) | IC50 (HEL92 cells; Homo sapiens, 72 h)
– | – | – | – | – | – | > 95% | 37% | 85% | 73% | 63% | 700 nM | 1600 nM | – | – | – | CC(C)n1c(N2CCN[C@@H](C)C2)nc2c([N+](=O)[O-])c(Br)c(Br)cc21 [Example 22Z, 5,6-dibromo-2-[(3S)-3-methylpiperazin-1-yl]-4-nitro-1-(propan-2-yl)-1H-1,3-benzodiazole] | – | 2400 nM
– | – | – | – | – | – | > 95% | 30% | 61% | 7% | 16% | 4100 nM | 7200 nM | < 5% | – | – | COC(CN)CNc1nc2c(C#N)c(Br)c(Br)cc2n1C(C)C (stereo not shown) [Example 22AC, 2-[(3-amino-2-methoxypropyl)amino]-5,6-dibromo-1-(propan-2-yl)-1H-1,3-benzodiazole-4-carbonitrile] | – | –
– | – | – | 54% | 600 nM | – | > 95% | 82% | > 95% | 31% | – | – | 4800 nM | – | <5% | – | CC(C)n1c(N2CCC[C@H](N)C2)nc2c(C#N)c(Br)c(Br)cc21 [Example 1BJ] | – | –
>95% | 69% | 12% | 30% | 4300 nM | 3900 nM | – | – | – | – | – | – | – | – | 27% | 25% | CCn1c(N2CC[C@@H](N)C2)nc2c([N+](=O)[O-])c(Cl)c(Cl)cc21 [Example 1CO] | – | –
– | – | – | – | – | – | 76% | 34% | 57% | 6% | 12% | – | – | < 5% | – | – | CCn1c(NCC(O)CN)nc2c([N+](=O)[O-])c(Br)c(Br)cc21 (stereo not shown) [Example 1G] | – | –
>95% | 91% | 37% | 46% | 1400 nM | 4500 nM | – | – | – | – | – | – | – | – | 12% | 54% | Cl.NC1CCCN(c2nc3c([N+](=O)[O-])c(Br)c(Br)cc3n2CC2CC2)C1 (stereo not shown) [Example 1AV] | – | –
>95% | >95% | 23% | >95% | 1600 nM | 4000 nM | – | – | – | – | – | – | – | – | <5% | 82% | N[C@@H]1CCN(c2nc3c([N+](=O)[O-])c(Br)c(Br)cc3n2CC2CC2)C1 [Example 1BG] | – | –
>95% | 64% | 7% | 22% | 2700 nM | 6000 nM | – | – | – | – | – | – | – | – | 6% | 28% | CCn1c(N2CCC[C@H](N)C2)nc2c([N+](=O)[O-])c(Cl)c(Cl)cc21 [Example 1CT] | – | –
– | – | – | – | – | – | 82% | 23% | 44% | < 5% | 21% | 2600 nM | 4200 nM | < 5% | – | – | CCn1c(Nc2ccccc2N)nc2c([N+](=O)[O-])c(Br)c(Br)cc21 [Example 22N, 1-N-(5,6-dibromo-1-ethyl-4-nitro-1H-1,3-benzodiazol-2-yl)benzene-1,2-diamine] | – | –
>95% | 76% | 12% | 37% | 2800 nM | 3200 nM | – | – | – | – | – | – | – | – | <5% | 53% | CC(C)n1c(N[C@H]2CNC[C@@H]2O)nc2c([N+](=O)[O-])c(Br)c(Br)cc21.Cl [Example 1CE] | – | –
– | – | – | – | – | – | > 95% | 15% | 66% | 76% | 77% | 300 nM | 1500 nM | < 5% | – | – | CCn1c(N2CCNCC2)nc2c(C(F)(F)F)c(Br)c(Br)cc21 [Example 9A, 5,6-dibromo-1-ethyl-2-(piperazin-1-yl)-4-(trifluoromethyl)-1H-1,3-benzodiazolehydrochloride] | – | –
>95% | 68% | 7% | – | 2400 nM | 1900 nM | – | – | – | – | – | – | – | – | <5% | 52% | CC(C)Cn1c(N2CCC[C@@H](N)C2)nc2c([N+](=O)[O-])c(Br)c(Br)cc21.Cl [Example 1AU] | 5800 nM | –
– | – | – | – | – | – | > 95% | – | 71% | < 5% | – | – | – | 16% | – | – | CC(C)n1c(N2CCCC(CO)C2)nc2c([N+](=O)[O-])c(Br)c(Br)cc21 (stereo not shown) [Example 22H, {1-[5,6-dibromo-4-nitro-1-(propan-2-yl)-1H-1,3-benzodiazol-2-yl]piperidin-3-yl}methanol] | – | –
– | – | – | – | – | – | > 95% | 40% | 85% | 23% | 28% | 4100 nM | – | < 5% | – | – | CC(C)n1c(N2CCOCC2)nc2c([N+](=O)[O-])c(Br)c(Br)cc21 [Example 22K, 5,6-dibromo-2-(morpholin-4-yl)-4-nitro-1-(propan-2-yl)-1H-1,3-benzodiazole] | – | –
>95% | 56% | 10% | 37% | 4800 nM | 4700 nM | – | – | – | – | – | – | – | – | 9% | 23% | COCCn1c(N2CC[C@@H](N)C2)nc2c([N+](=O)[O-])c(Br)c(Br)cc21 [Example 1CS] | – | –
– | – | – | – | – | – | 89% | – | 92% | < 5% | 40% | – | – | < 5% | – | – | CC(C)n1c(NCC(O)CN)nc2c([N+](=O)[O-])c(Br)c(Br)cc21 (stereo not shown) [Example 1W] | – | –
– | – | – | – | – | – | > 95% | 29% | 77% | < 5% | 21% | 1900 nM | 5100 nM | < 5% | – | – | CC(C)n1c(NCC2CNCCO2)nc2c(C#N)c(Br)c(Br)cc21 (stereo not shown) [Example 1BN] | – | –

Compound | Pim-1 % INH (1 μM) (Pim-1) | Pim-3 % INH (1 μM) (Pim-3) | Flt3wt % INH (1 μM) (FLT3wt) | DYRK1A % INH (1 μM) (DYRK1) | IC50 (MV4-11 cells; 72 hours) | IC50 (HepG2 cells; 72 hours) | inhibition at 1 µM (Pim-1) | inhibition at 1 µM (Pim-2) | inhibition at 1 µM (Pim-3) | inhibition at 1 µM (FLT3wt) | inhibition at 1 µM (DYRK1) | IC50 (MV4-11 cells; Homo sapiens, MV4-11, 72 h) | IC50 (HepG2 cells; Homo sapiens, HepG2, 72 h) | inhibition at 1 µM (CDK2/E) | CDK2/E % INH (1 μM) (CDK2/E) | Pim-2 % INH (1 μM) (Pim-2) | IC50 (HEL92 cells; 72 hours) | IC50 (HEL92 cells; Homo sapiens, 72 h)
CC(C)n1c(N2CCNC[C@H]2C)nc2c([N+](=O)[O-])c(Br)c(Br)cc21 [Example 1AO] | 95% | 59% | 26% | 15% | 600 nM | 1700 nM | – | – | – | – | – | – | – | – | – | – | 3800 nM | –
